Results taken from patent publication US4371464A, “Dipeptide sweetener” (Stamicarbon, B.V., priority 1980, dated 1983).

Test: organoleptic research (sweetness compared with sucrose)
Conditions: reference sucrose

## COC(=O)[C@@H](NC(=O)[C@H](CC(=O)O)NC(=O)NC=O)c1ccccc1 [II, N-(N'-formyl)-carbamyl-L-alpha-aspartyl-L-phenylglycinemethylester]
  sweetness relative to sucrose: 200 times sweeter than sucrose
